# Test results reported in US20260144788A1, “COMPOUND FOR SHP2 PROTEIN DEGRADATION AND MEDICAL USES THEREOF” (UBIX THERAPEUTICS, INC., priority 2022, published 2026).
# Legend:
# SHP2 protein [1] = molecular target: T1, SHP2 protein (Homo sapiens, UniProt Q06124); assay: Measurement of SHP2 protein degradation in MV-4-11 cells (western blotting); format: cell-based; set-up: endogenous in cells; conditions: harvested after 24 hours
# T1 sequence (Q06124 1-593): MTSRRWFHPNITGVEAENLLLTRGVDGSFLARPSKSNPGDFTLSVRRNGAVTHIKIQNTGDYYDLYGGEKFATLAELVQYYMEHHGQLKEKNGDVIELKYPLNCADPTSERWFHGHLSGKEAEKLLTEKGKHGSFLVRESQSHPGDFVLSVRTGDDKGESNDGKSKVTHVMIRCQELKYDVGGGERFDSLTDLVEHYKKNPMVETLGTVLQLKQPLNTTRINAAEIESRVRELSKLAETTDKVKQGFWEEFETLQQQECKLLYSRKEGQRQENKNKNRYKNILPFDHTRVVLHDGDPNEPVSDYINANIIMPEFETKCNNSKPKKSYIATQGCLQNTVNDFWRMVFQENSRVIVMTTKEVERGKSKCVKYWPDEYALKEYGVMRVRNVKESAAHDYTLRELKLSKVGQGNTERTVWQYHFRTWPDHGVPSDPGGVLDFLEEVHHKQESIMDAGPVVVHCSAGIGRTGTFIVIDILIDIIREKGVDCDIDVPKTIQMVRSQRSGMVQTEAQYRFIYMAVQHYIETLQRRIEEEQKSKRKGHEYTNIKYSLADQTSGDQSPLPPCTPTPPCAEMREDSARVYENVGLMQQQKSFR
# Description: MV-4-11 cells were treated with the synthesized Example compounds, and the amount of SHP2 protein present in the cells was measured using western blotting detection. The protocol for the experiment conducted using MV-4-11 cells is as follows.
# [Culture] MV-4-11 cells were resuspended in IMDM MEDIUM (Hyclone, SH30228.01), 5% FBS (Hyclone, SV30207.02), 1% Penicillin-streptomycin (Welgene, LS 202-02) media and seeded at 1×10^6/mL in 12-well plates (1 mL each).
# [Compound treatment]12-well plates were treated as follows. 10 mM stock dissolved in DMSO was serially diluted 1/100 or 1/10 with media, and the compounds were treated to the cells at a final concentration of 0.01, 0.1, 1 μM or 0.001, 0.01, 0.1 μM, and harvested after 24 hours. For the negative control group, DMSO diluted 1/100 or 1/1000 in media was added (3 μL DMSO+297 μL media or 1 μL DMSO+999 μL media).
# [Harvest] Each well was pipetted with a 1 mL pipette, collected in a 1.5 mL microtube, and centrifuged (500 g, 5 min, 4° C.). The supernatant was removed, washed with PBS, and centrifuged again (500 g, 5 min, 4° C.). The supernatant was removed and a pellet was prepared.
# [Cell lysis and sample preparation] Lysis buffer was prepared as follows. RIPA buffer (Biosesang, RC2038-050-00)+0.5 mM PMSF (SIGMA, P7626)+1× Protease/Phosphatase Inhibitor (Cell signaling, 5872S) were added at 50 μL per tube and incubated on ice for 30 minutes (vortexed at 0 and 30 minutes). After sonication (10 sec pulse, 30 sec rest, 5 cycles, 70% amplification) and centrifugation (15,000 g, 15 min, 4° C.), only the supernatant was transferred to a microtube. RIPA buffer 7.5 μL and sample 2.5 μL were added to a 96-well plate to dilute to 1/4, and then BCA Protein Assay Kit (iNtRON, 21071) A and B were mixed in a 50:1 ratio and 200 μL each was added. After that, the plate was incubated at 37° C. for 30 minutes and left at room temperature for 10 minutes. After shaking for 10 seconds with a SYNERGY H1 microplate reader from BioTek, the absorbance was measured at 562 nm. The protein was quantified using the measured value to prepare a sample, which was then incubated at 70° C. for 10 minutes. The sample buffer used at this time is a mixture of NuPAGE or Bolt 4× sample buffer (Invitrogen) and each 10× sample reducing agent according to the gel to be used, and RIPA buffer was used for protein dilution.
# [Western blotting detection] Equal amounts of samples were loaded onto NuPAGE or Bolt Bis-tris 4-12% gradient gels and run (200 V, 35 min). This was transferred to […] NC membranes using Trans-blot Turbo (BIO-RAD) (1.3 A constant, 25 V limit, 15 min), and was blocked at room temperature for 1 hour with Skim milk or Intercept Blocking Buffer (LI-COR, 927-60001):0.1% TBST=1:1. Anti-SHPTP2 Mouse (1:500 in 2% BSA/0.2% TBST, size: 70 kDa, Santacruz sc-7384) was incubated overnight at 4° C., and Anti-GAPDH Rabbit (1:2,000 in 2% BSA/0.2% TBST, size: 37 kDa, CST #2118) was incubated at room temperature for 1.5 hours or 3 hours. After washing three times for 5 minutes each with 0.2% TBST washing buffer, secondary antibodies Anti-Mouse IgG (1:5,000 in 2% BSA/0.2% TBST, CST) and IRDye® 680RD Goat anti-Rabbit IgG Secondary Antibody (1:10,000 in 2% BSA/0.2% TBST, LI-COR 926-68071) were added, and incubated on a rocker at room temperature for 45 minutes. The resultants were washed five times for 5 minutes each with 0.2% TBST washing buffer, and detected using LI-COR's Odyssey. GAPDH was detected with a 700 nm channel, and SHPTP2 was detected using SuperSignal West Pico PLUS Chemiluminescent Substrate.
# SHP2 protein [2] = molecular target: T1, SHP2 protein; assay: Measurement of SHP2 protein degradation in NCI-H358 cells (western blotting); format: cell-based; set-up: endogenous in cells; host or cells: NCI-H358; conditions: harvested after 24 hours
# Method in brief: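 H358 cells in RPMI1640/25 mM HEPES/10% FBS, cultured 24 h, then exposed to compound at final 0.001, 0.01 and 0.1 μM for 24 h against a DMSO control. Lysates were normalised for protein by BCA and probed by western blot for SHP2, with GAPDH as loading control.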
Compound,SHP2% degradation (SHP2 protein [1]; 0.01 μM),SHP2% degradation (SHP2 protein [1]; 0.1 μM),SHP2% degradation (SHP2 protein [2]; 0.01 μM),SHP2% degradation (SHP2 protein [2]; 0.1 μM)
"Cc1ncsc1-c1ccc(CNC(=O)[C@@H]2C[C@@H](O)CN2C(=O)[C@@H](NC(=O)C2(F)CC2)C(C)(C)C)c(OCCCCCCN2CCC(CNc3cccc(Sc4cnc(N5CCC(C)(CN)CC5)cn4)c3Cl)CC2)c1 [Example 1, (2S,4R)—N-(2-((6-(4-(((3-((5-(4-(aminomethyl)-4-methylpiperidin-1-yl)pyrazin-2-yl)thio)-2-chlorophenyl)amino)methyl)piperidin-1-yl)hexyl)oxy)-4-(4-methylthiazol-5-yl)benzyl)-1-((S)-2-(1-fluorocyclopropane-1-carboxamido)-3,3-dimethylbutanoyl)-4-hydroxypyrrolidine-2-carboxamide]",−33.4%,6.5%,,
"Cc1ncsc1-c1ccc(CNC(=O)[C@@H]2C[C@@H](O)CN2C(=O)[C@@H](NC(=O)C2(F)CC2)C(C)(C)C)c(OCCN2CCN(CCNc3cccc(Sc4cnc(N5CCC(C)(CN)CC5)cn4)c3Cl)CC2)c1 [Example 2, (2S,4R)—N-(2-(2-(4-(2-((3-((5-(4-(aminomethyl)-4-methylpiperidin-1-yl)pyrazin-2-yl)thio)-2-chlorophenyl)amino)ethyl)piperazin-1-yl)ethoxy)-4-(4-methylthiazol-5-yl)benzyl)-1-((S)-2-(1-fluorocyclopropane-1-carboxamido)-3,3-dimethylbutanoyl)-4-hydroxypyrrolidine-2-carboxamide]",11.8%,80.3%,,
"Cc1ncsc1-c1ccc(CNC(=O)[C@@H]2C[C@@H](O)CN2C(=O)[C@@H](NC(=O)C2(F)CC2)C(C)(C)C)c(OCCN2CCN(CCNc3cccc(Sc4cnc(N5CCC(C)(CN)CC5)cn4)c3Cl)C(=O)C2)c1 [Example 3, (2S,4R)—N-(2-(2-(4-(2-((3-((5-(4-(aminomethyl)-4-methylpiperidin-1-yl)pyrazin-2-yl)thio)-2-chlorophenyl)amino)ethyl)-3-oxopiperazin-1-yl)ethoxy)-4-(4-methylthiazol-5-yl)benzyl)-1-((S)-2-(1-fluorocyclopropane-1-carboxamido)-3,3-dimethylbutanoyl)-4-hydroxypyrrolidine-2-carboxamide]",19%,90.3%,,
"Cc1ncsc1-c1ccc(CNC(=O)[C@@H]2C[C@@H](O)CN2C(=O)[C@@H](NC(=O)C2(F)CC2)C(C)(C)C)c(OCCN2CCN(C(=O)CNc3cccc(Sc4cnc(N5CCC(C)(CN)CC5)cn4)c3Cl)CC2)c1 [Example 4, (2S,4R)—N-(2-(2-(4-((3-((5-(4-(aminomethyl)-4-methylpiperidin-1-yl)pyrazin-2-yl)thio)-2-chlorophenyl)glycyl)piperazin-1-yl)ethoxy)-4-(4-methylthiazol-5-yl)benzyl)-1-((S)-2-(1-fluorocyclopropane-1-carboxamido)-3,3-dimethylbutanoyl)-4-hydroxypyrrolidine-2-carboxamide]",42.9%,95.6%,,
"Cc1ncsc1-c1ccc(CNC(=O)[C@@H]2C[C@@H](O)CN2C(=O)[C@@H](NC(=O)C2(F)CC2)C(C)(C)C)c(O[C@H]2CC[C@H](CN3CC(Nc4cccc(Sc5cnc(N6CCC(C)(CN)CC6)cn5)c4Cl)C3)CC2)c1 [Example 5, (2S,4R)—N-(2-(((1R,4S)-4-((3-((3-((5-(4-(aminomethyl)-4-methylpiperidin-1-yl)pyrazin-2-yl)thio)-2-chlorophenyl)amino)azetidin-1-yl)methyl)cyclohexyl)oxy)-4-(4-methylthiazol-5-yl)benzyl)-1-((S)-2-(1-fluorocyclopropane-1-carboxamido)-3,3-dimethylbutanoyl)-4-hydroxypyrrolidine-2-carboxamide]",22.3%,62.0%,,
"Cc1ncsc1-c1ccc(CNC(=O)[C@@H]2C[C@@H](O)CN2C(=O)[C@@H](NC(=O)C2(F)CC2)C(C)(C)C)c(O[C@H]2CC[C@H](CN3CCC(Nc4cccc(Sc5cnc(N6CCC(C)(CN)CC6)cn5)c4Cl)CC3)CC2)c1 [Example 6, (2S,4R)—N-(2-(((1R,4S)-4-((4-((3-((5-(4-(aminomethyl)-4-methylpiperidin-1-yl)pyrazin-2-yl)thio)-2-chlorophenyl)amino)piperidin-1-yl)methyl)cyclohexyl)oxy)-4-(4-methylthiazol-5-yl)benzyl)-1-((S)-2-(1-fluorocyclopropane-1-carboxamido)-3,3-dimethylbutanoyl)-4-hydroxypyrrolidine-2-carboxamide]",14.8%,56.9%,,
"Cc1cc(C(C(=O)N2C[C@H](O)C[C@H]2C(=O)NCc2ccc(-c3scnc3C)cc2O[C@H]2CC[C@H](C(=O)N3CC(Nc4cccc(Sc5cnc(N6CCC(C)(CN)CC6)cn5)c4Cl)C3)CC2)C(C)C)on1 (stereo partly drawn) [Example 114, (2S,4R)—N-(2-(((1R,4S)-4-(3-((3-((5-(4-(aminomethyl)-4-methylpiperidin-1-yl)pyrazin-2-yl)thio)-2-chlorophenyl)amino)azetidine-1-carbonyl)cyclohexyl)oxy)-4-(4-methylthiazol-5-yl)benzyl)-4-hydroxy-1-(3-methyl-2-(3-methylisoxazol-5-yl)butanoyl)pyrrolidine-2-carboxamide]",,,48.3%,88.1%
"Cc1cc(C(C(=O)N2C[C@H](O)C[C@H]2C(=O)NCc2ccc(-c3scnc3C)cc2O[C@H]2CC[C@H](C(=O)N3CC(Nc4cccc(Sc5cnc(N6CCC(C)(CN)CC6)cn5)c4Cl)C3)CC2)C(C)C)on1 (stereo partly drawn) [Example 115, (2S,4R)—N-(2-(((1R,4S)-4-(3-((3-((5-(4-(aminomethyl)-4-methylpiperidin-1-yl)pyrazin-2-yl)thio)-2-chlorophenyl)amino)azetidine-1-carbonyl)cyclohexyl)oxy)-4-(4-methylthiazol-5-yl)benzyl)-4-hydroxy-1-(3-methyl-2-(3-methylisoxazol-5-yl)butanoyl)pyrrolidine-2-carboxamide]",,,98.3%,99.2%
